Source: US8518952B2, “6 substituted 2-heterocyclylamino pyrazine compounds as CHK-1 inhibitors” (Pfizer Inc., priority 2008, dated 2013)
Read-outs that look alike come from different tables or passages of the source.

Experiments:
Mia Paca-2 cells = assay: Histone H3 (Ser10) phosphorylation ELISA, abrogation of camptothecin-induced G2 arrest (CHK-1 cellular assay); type: cell-based; settings: Homo sapiens; Mia Paca-2 cells (entries marked *); camptothecin 8 hrs, then compound with nocodozole 16 hours
Procedure: The Histone H3 phosphorylation ELISA assay detects cells entering mitosis and represents the primary in vitro cell-based assay used to measure the cellular potency of compounds in abrogating the G2 check point induced by DNA damage in HeLa cells or MiaPaCa cells. The candidate substances were assayed for potency in their ability to inhibit camptothecin-induced G2 arrest, as measured by an increase in Histone H3 phosphorylation on Ser10, a marker of entry into mitosis.
The PathScan Phospho-Histone H3 (Ser10) Sandwich ELISA kit was used (Cell Signaling, #7155) and the assay was performed according to manufacturer recommendations. Tissue culture plates were seeded with HeLa cells or MiaPaCa Cells and allowed to attach overnight. The cells were then treated with camptothecin to induce DNA damage for 8 hrs. Candidate substances or diluent were then added in the presence of nocodozole for 16 hours. Cells were then lysed with buffer from Assay Designs (#80-1114) supplemented with protease inhibitors and frozen overnight. The fresh whole cell lysates were then thawed and added to the ELISA plate with shaking for 3 hours. Between all subsequent steps plates were washed 4 times with PBST. Biotinylated phospho Histone H3 (ser10) detection antibody was added for 1 hour, followed by addition of horseradish peroxidase-linked streptavidin secondary antibody for 1 hour. Color development of the antibody was performed with addition of TMB substrate and incubation for 2 minutes on a plate shaker. Stop solution was added and plates were read with absorbance at 450 nm on a spectrophotometer. EC50 values were calculated by sigmoid curve fitting using a four-parameter analysis.
Under the “Ki” column, data entries in the format of “%” are percent inhibition data where no Ki data is available. Data entry under the “EC50” column with an * are data obtained using Mia Paca-2 cells rather than HeLa cells. Data is not available where noted as n/a.

CHK1 (kinase domain) = target: T1, CHK1 (kinase domain) (Homo sapiens, UniProt O14757); assay: CHK1 Ki determination, spectrophotometric coupled (pyruvate kinase/lactate dehydrogenase) assay; type: biochemical; settings: CHK-1 kinase domain; for Ki: 150 uM ATP, 125 uM Syntide 2; for percent inhibition (where no Ki data is available): inhibitor concentration not given
T1 construct: a solution containing 1 nM of CHK1 (kinase domain)
T1 sequence (O14757 9-265 limits assumed): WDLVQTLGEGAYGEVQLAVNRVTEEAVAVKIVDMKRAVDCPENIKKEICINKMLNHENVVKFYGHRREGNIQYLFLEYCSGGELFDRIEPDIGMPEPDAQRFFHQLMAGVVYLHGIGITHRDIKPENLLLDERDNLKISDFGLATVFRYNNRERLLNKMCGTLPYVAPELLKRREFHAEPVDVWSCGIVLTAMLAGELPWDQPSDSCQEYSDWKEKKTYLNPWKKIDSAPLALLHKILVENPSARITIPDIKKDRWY
Method in brief: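 Ki values, or % inhibition where no Ki was obtained, come from a tight-binding fit that uses active enzyme concentration and the ATP Km. Rates were followed as NADH loss at 340 nm, with ADP production coupled via pyruvate kinase and lactate dehydrogenase. Reactions with ATP (150 uM) and Syntide 2 (125 uM) were started after the CHK1 kinase domain had stood with inhibitor for 15 min.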

HeLa cells = assay: Histone H3 (Ser10) phosphorylation ELISA, abrogation of camptothecin-induced G2 arrest (CHK-1 cellular assay); type: cell-based; settings: HeLa cells, camptothecin 8 hrs, then compound with nocodozole 16 hours, read-out: EC50
Method in brief: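 HeLa cells, or MiaPaCa-2 where marked, received camptothecin for 8 h, then compound with nocodazole for 16 h. Ser10-phosphorylated histone H3 in lysates was measured by ELISA with a biotinylated antibody, streptavidin-HRP and TMB. EC50 came from four-parameter sigmoid fits.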

| SMILES | EC50 (Mia Paca-2 cells) [µM] | Ki (CHK1 (kinase domain)) [nM] | EC50 (HeLa cells; Homo sapiens, HeLa) [nM] | percent inhibition (where no Ki data is available) (CHK1 (kinase domain)) [%^] | EC50 (HeLa cells) [nM] |
| --- | --- | --- | --- | --- | --- |
| N#Cc1ccn2c(-c3cncc(N[C@@H]4C[C@@H]5CN[C@H]4C5)n3)cnc2c1 [Example 162, 3-{6-[(1S,4R,6R)-2-azabicyclo[2.2.1]hept-6-ylamino]pyrazin-2-yl}imidazo[1,2-a]pyridine-7-carbonitrile] | 0.321 |  |  |  |  |
| CC1(COc2ccc3c(c2)ncn3-c2cncc(N[C@@H]3CCCNC3)n2)COC1 [Example 47, 6-{5-[(3-Methyloxetan-3-yl)methoxy]-1H-benzimidazol1-yl}-N-[(3R)-piperidin-3-yl]pyrazin-2-amine] |  | 24.6 | 52.2 |  |  |
| C[C@@H]1NCCC[C@@H]1Nc1cncc(-c2cnc3sccn23)n1 [Example 179, 6-(imidazo[2,1-b][1,3]thiazol-5-yl)-N-[(2S,3S)-2-methylpiperidin-3-yl]pyrazin-2-amine] |  |  | 294 | 29.1 |  |
| CCc1cn2c(-c3cncc(N[C@@H]4CCCN[C@@H]4C)n3)cnc2s1 [Example 108, 6-(2-ethylimidazo[2,1-b][1,3]thiazol-5-yl)-N-[(2R,3R)-2-methylpiperidin-3-yl]pyrazin-2-amine] |  | 10.2 |  |  | 47 |
| FC[C@@H]1C[C@@H](Nc2cncc(-c3cnn4cc(Cl)ccc34)n2)CN1 [Example 79, 6-(6-chloropyrazolo[1,5-a]pyridin-3-yl)-N-[(3R,5S)-5-(fluoromethyl)pyrrolidin-3-yl]pyrazin-2-amine] |  | 5.68 | 184 |  |  |
| CCOC[C@@H]1C[C@@H](Nc2cncc(-c3cnc4ccccn34)n2)CN1 [Example 193, N-[(3R,5S)-5-(ethoxymethyl)pyrrolidin-3-yl]-6-(imidazo[1,2-a]pyridin-3-yl)pyrazin-2-amine] |  | 26.5 | 102 |  |  |
| CC(C)c1ccc2ncc(-c3cncc(N[C@@H]4CCNC4)n3)n2c1 [Example 57, 6-(6-Isopropylimidazo[1,2-a]pyridin-3-yl)-N-[(3R)-pyrrolidin-3-yl]pyrazin-2-amine] |  | 6.09 | 373 |  |  |
| C[C@@H]1CNC[C@@H]1Nc1cncc(-c2cnc3cc(C(N)=O)ccn23)n1 [Example 191, 3-(6-{[(3R,4R)-4-methylpyrrolidin-3-yl]amino}pyrazin-2-yl)imidazo[1,2-a]pyridine-7-carboxamide] |  | 4.7 | 5070 |  |  |
| Fc1ccc2ncc(-c3cncc(N[C@H]4CNC[C@@H]4F)n3)n2c1 [Example 92, 6-(6-fluoroimidazo[1,2-a]pyridin-3-yl)-N-[(3S,4S)-4-fluoropyrrolidin-3-yl]pyrazin-2-amine] |  | 87.5 | ≥ 10000 |  |  |
| Clc1ccc2c(-c3cncc(N[C@@H]4CCCNC4)n3)cnn2c1 [Example 117, 6-(6-chloropyrazolo[1,5-a]pyridin-3-yl)-N-[(3R)-piperidin-3-yl]pyrazin-2-amine] |  | 0.802 | 32.9 |  |  |
| CCc1ccn2c(-c3cncc(N[C@@H]4CCNC4)n3)cnc2c1 [Example 56, 6-(7-Ethylimidazo[1,2-a]pyridin-3-yl)-N-[(3R)-pyrrolidin-3-yl]pyrazin-2-amine] |  | 11.2 | 126 |  |  |
| CC(C)Oc1ccc2ncn(-c3cncc(N[C@@H]4CCCNC4)n3)c2c1 [Example 150, 6-(6-isopropoxy-1H-benzimidazol-1-yl)-N-[(3R)-piperidin-3-yl]pyrazin-2-amine] |  | 5.91 | 284 |  |  |
| CC1(Nc2cncc(-c3cnc4n3CCCC4)n2)CCNC1 (centres unmarked) [Example 98, N-(3-methylpyrrolidin-3-yl)-6-(5,6,7,8-tetrahydroimidazo[1,2-a]pyridin-3-yl)pyrazin-2-amine] |  | 1000 | ≥ 10000 |  |  |
| CC(C)c1cn2c(-c3cncc(N[C@@H]4CC[C@H](C)NC4)n3)cnc2s1 [Example 114, 6-(2-isopropylimidazo[2,1-b][1,3]thiazol-5-yl)-N-[(3R,6S)-6-methylpiperidin-3-yl]pyrazin-2-amine] |  | 12.3 | 230 |  |  |
| N#Cc1ncc(N[C@@H]2CCNC2)nc1-c1cnc2ccccn12 [Example 267, 3-(imidazo[1,2-a]pyridin-3-yl)-5-[(3R)-pyrrolidin-3-ylamino]pyrazine-2-carbonitrile] | 10 |  |  |  |  |
| Cc1cn2c(-c3cncc(N[C@H]4CN[C@H](C)C4)n3)cnc2s1 [Example 178, 6-(2-methylimidazo[2,1-b][1,3]thiazol-5-yl)-N-[(3R,5R)-5-methylpyrrolidin-3-yl]pyrazin-2-amine] |  | 2.01 | 31.2 |  |  |
| FC(F)(F)c1ccc2ncc(-c3cncc(N[C@@H]4CCCNC4)n3)n2c1 [Example 39, N-[(3R)-piperidin-3-yl]-6-[6-(trifluoromethyl)imidazo[1,2-a]pyridin-3-yl]pyrazin-2-amine] |  | 17 | 677 |  |  |
| C[C@@H]1CNC[C@@H]1Nc1cncc(-c2cnn3cc(F)ccc23)n1 [Example 202, 6-(6-fluoropyrazolo[1,5-a]pyridin-3-yl)-N-[(3R,4R)-4-methylpyrrolidin-3-yl]pyrazin-2-amine] |  | 18.4 | 19.4 |  |  |
| Cc1cn2c(-c3cncc(N[C@H]4CNC[C@H]4CF)n3)cnc2s1 [Example 183, N-[(3R,4R)-4-(fluoromethyl)pyrrolidin-3-yl]-6-(2-methylimidazo[2,1-b][1,3]thiazol-5-yl)pyrazin-2-amine] |  | 5.4 | 53 |  |  |
| FC1(F)CCNC[C@@H]1Nc1cncc(-c2cnc3ccccn23)n1 [Example 249, N-[(3S)-4,4-difluoropiperidin-3-yl]-6-(imidazo[1,2-a]pyridin-3-yl)pyrazin-2-amine] |  | 4.5 | 32.2 |  |  |
| Cc1ncc(-c2cncc(N[C@@H]3CCCNC3)n2)n1C [Example 64, 6-(1,2-dimethyl-1H-imidazol-5-yl)-N-[(3R)-piperidin-3-yl]pyrazin-2-amine] |  | 1110 | ≥ 10000 |  |  |
| CC(C)c1cn2c(-c3cncc(N[C@H]4CNC[C@H]4CF)n3)cnc2s1 [Example 184, N-[(3R,4R)-4-(fluoromethyl)pyrrolidin-3-yl]-6-[2-(propan-2-yl)imidazo[2,1-b][1,3]thiazol-5-yl]pyrazin-2-amine] |  |  | 66.4 | 109 |  |
| Fc1ccc2ncc(-c3cncc(N[C@H]4CNC[C@H]4F)n3)n2c1 [Example 90, 6-(6-fluoroimidazo[1,2-a]pyridin-3-yl)-N-[(3S,4R)-4-fluoropyrrolidin-3-yl]pyrazin-2-amine] |  | 70.5 | ≥ 10000 |  |  |
| CC(C)c1cn2c(-c3cncc(N[C@@H]4C[C@@H]5CN[C@H]4C5)n3)cnc2s1 [Example 127, (1S,4R,6R)-N-[6-(2-isopropylimidazo[2,1-b][1,3]thiazol-5-yl)pyrazin-2-yl]-2-azabicyclo[2.2.1]heptan-6-amine] |  | 8.91 | 1060 |  |  |
| c1cn2c(-c3cncc(N[C@@H]4CCNC4)n3)cnc2s1 [Example 49, 6-Imidazo[2,1-b][1,3]thiazol-5-yl-N-[(3R)-pyrrolidin-3-yl]pyrazin-2-amine] |  | 11.7 | 142 |  |  |
| C[C@H]1CC[C@@H](Nc2cncc(-c3cnc4ccc(F)cn34)n2)CN1 [Example 93, 6-(6-fluoroimidazo[1,2-a]pyridin-3-yl)-N-[(3R,6S)-6-methylpiperidin-3-yl]pyrazin-2-amine] |  | 89 | 3330 |  |  |
| c1cn2c(-c3cncc(N[C@@H]4CCCNC4)n3)cnc2s1 [Example 41, 6-Imidazo[2,1-b][1,3]thiazol-5-yl-N-[(3R)-piperidin-3-yl]pyrazin-2-amine] |  | 7 | 25.8 |  |  |
| c1ccn2ncc(-c3cncc(N[C@@H]4CCNC4)n3)c2c1 [Example 115, 6-pyrazolo[1,5-a]pyridin-3-yl-N-[(3R)-pyrrolidin-3-yl]pyrazin-2-amine] |  | 3.3 | 169 |  |  |
| CC(C)OCCOc1ccn2c(-c3cncc(N[C@@H]4CCNC4)n3)cnc2c1 [Example 213, 6-{7-[2-(propan-2-yloxy)ethoxy]imidazo[1,2-a]pyridin-3-yl}-N-[(3R)-pyrrolidin-3-yl]pyrazin-2-amine] |  | 3.58 | ≥ 10000 |  |  |
